These are literature values, as cited in US6306864A, “Atropisomers of 3-aryl-4(3H)-quinazolinones and their use as AMPA-receptor antagonists” (Pfizer Inc., priority 2000, dated 2001).

The structures appear in SMILES notation.

The subject of data set [1] is global and focal ischemic damage. As to conditions: focal and global ischemia models.
The test system of data set [2] is rat global ischemia models.

Consider `NS(=O)(=O)c1cccc2c1c([N+](=O)[O-])cc1[nH]c(=O)c(=O)[nH]c12` [NBQX, 2,3-dihydroxy-6-nitro-7-sulfamoylbenzo[f-]quinoxaline], for which the “prevention of global and focal ischemic damage” value in data set [1] was “effective in preventing global and focal ischemic damage”.

As to `CC1=NN=C(c2ccc(N)cc2)c2cc3c(cc2C1)OCO3` [GKYI 52466], the “neuroprotection in rat global ischemia models” value in data set [2] is listed as “effective neuroprotective agent”.
